Article PMC8119466, “A screen of FDA-approved drugs identifies inhibitors of protein tyrosine phosphatase 4A3 (PTP4A3 or PRL-3)” (Scientific Reports, 2021)
Counter-ions that a name gives are not always drawn. Like-named read-outs stand apart in the source and are kept apart here.

Tests used:
recombinant PRL-3 = biological target: T1, recombinant PRL-3 (Homo sapiens, UniProt O75365); assay: In vitro phosphatase assay (DiFMUP hydrolysis), PRL-3; type: biochemical
T1 construct: 6xHis (N, cleaved yes); made in house; host or cells: E. coli One Shot BL21 Star
T1 sequence (O75365 whole entry): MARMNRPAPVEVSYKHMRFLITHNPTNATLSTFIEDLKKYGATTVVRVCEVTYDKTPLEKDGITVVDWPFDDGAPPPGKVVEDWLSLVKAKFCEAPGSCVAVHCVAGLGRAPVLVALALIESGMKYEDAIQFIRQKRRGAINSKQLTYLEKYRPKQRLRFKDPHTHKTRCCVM
Protocol: Briefly, protein was diluted in reaction buffer and allowed to incubate at 4 °C for 20 min to allow for full reduction of the active site. DiFMUP, drug, and protein were added, and plates were incubated for 20 min at room temperature. Fluorescence intensities were measured on a Cytation 5 plate reader (Biotek) at an EX:360 nm and EM:460 nm. […] Inhibition selectivity for PRLs over a panel of other phosphatases was determined using PhosphataseProfiler (Eurofins, Cat # PP260).

recombinant PRL-2 = biological target: T2, recombinant PRL-2 (Homo sapiens, UniProt Q12974); assay: In vitro phosphatase assay (DiFMUP hydrolysis), PRL-2; type: biochemical;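 also: PRL-2 activity read as DiFMUP hydrolysis after 20 min at room temperature with drug, enzyme first pre-reduced at 4 °C for 20 min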
T2 construct: 6xHis (N, cleaved yes); made in house; host or cells: E. coli One Shot BL21 Star
T2 sequence (Q12974 1-167): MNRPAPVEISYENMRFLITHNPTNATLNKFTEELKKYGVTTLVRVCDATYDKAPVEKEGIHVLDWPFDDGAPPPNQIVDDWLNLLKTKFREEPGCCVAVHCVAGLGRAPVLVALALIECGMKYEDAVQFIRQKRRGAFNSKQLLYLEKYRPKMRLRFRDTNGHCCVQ

[1] = FDA-approved drug screen, compared to DMSO
[2] = FDA-approved drug screen, activity compared to DMSO

Compound | % Phosphatase Activity (compared to DMSO) PRL-3 (recombinant PRL-3; [1]) [%] | % Phosphatase Activity (compared to DMSO) PRL-2 (recombinant PRL-2; [1]) [%] | other results
CCn1cc(C(=O)O)c(=O)c2cc(F)c(N3CCNCC3)nc21 [Enoxacin] | 98 | 95 | –
Cl.N=C(N=C(N)N)N1CCOCC1 [Moroxydine HCl] | 79 | 102 | –
COc1ccc([C@]2(C#N)CC[C@@H](C(=O)O)CC2)cc1OC1CCCC1 [Cilomilast] | 88 | 99 | –
Nc1c2c(nc3ccccc13)CCCC2 [Tacrine HCl] | – | – | % Phosphatase Activity (compared to DMSO) PRL-3 (recombinant PRL-3): 89%; % Phosphatase Activity (compared to DMSO) PRL-2 (recombinant PRL-2): 89%
CC1(C)CCC(CN2CCN(c3ccc(C(=O)NS(=O)(=O)c4ccc(NCC5CCOCC5)c([N+](=O)[O-])c4)c(Oc4cnc5[nH]ccc5c4)c3)CC2)=C(c2ccc(Cl)cc2)C1 [ABT-199, reference compound] | – | – | selectivity in inhibiting PRL-2 over other PRLs (recombinant PRL-2; drug 40 µM): demonstrated selectivity in inhibiting PRL-2
O=C(O)c1ccccc1 [Benzoic Acid] | 76 | 101 | –
COc1cc2c(cc1OC)[C@@]13CCN4CC5=CCO[C@H]6CC(=O)N2[C@H]1[C@H]6[C@H]5C[C@H]43 [Brucine] | 83 | 86 | –
COc1cc(Cc2cnc(N)nc2N)cc(OC)c1OC [Trimethoprim] | – | – | % Phosphatase Activity (compared to DMSO) PRL-3 (recombinant PRL-3): 79%; % Phosphatase Activity (compared to DMSO) PRL-2 (recombinant PRL-2): 107%
Br.COc1ccc2c3c1O[C@H]1C[C@@H](O)C=C[C@@]31CCN(C)C2 [Galanthamine HBr] | 93 | 85 | –
Cc1c(-c2ccc(O)cc2)n(Cc2ccc(OCCN3CCCCCC3)cc2)c2ccc(O)cc12 [Bazedoxifene Acetate] | – | 106 | –
CC(C)N(CCNC(=O)CN1CCCC1=O)C(C)C [Pramiracetam] | 88 | 88 | –
CC/C(=C(\c1ccccc1)c1ccc(OCCN(C)C)cc1)c1ccccc1 [Tamoxifen] | – | – | % Phosphatase Activity (compared to DMSO) PRL-3 (recombinant PRL-3; [2]): 81%; % Phosphatase Activity (compared to DMSO) PRL-2 (recombinant PRL-2; [2]): 110%
N[C@@H]1CON=C1O [D-Cycloserine] | 95 | 101 | –
CN1CCC(COc2cnc(-c3cccc(Cn4nc(-c5cccc(C#N)c5)ccc4=O)c3)nc2)CC1 [Tepotinib (EMD 1214063)] | – | – | % Phosphatase Activity (compared to DMSO) PRL-3 (recombinant PRL-3; [2]): 113%; % Phosphatase Activity (compared to DMSO) PRL-2 (recombinant PRL-2; [2]): 110%
Nc1nc2[nH]cc(CCc3ccc(C(=O)N[C@@H](CCC(=O)[O-])C(=O)[O-])cc3)c2c(=O)[nH]1.Nc1nc2[nH]cc(CCc3ccc(C(=O)N[C@@H](CCC(=O)[O-])C(=O)[O-])cc3)c2c(=O)[nH]1.O.O.O.O.O.[Na+].[Na+].[Na+].[Na+] [Pemetrexed Disodium Hydrate] | 108 | 101 | –
CC1(C)O[C@@H]2C[C@H]3[C@@H]4CCC5=CC(=O)CC[C@]5(C)[C@@]4(F)[C@@H](O)C[C@]3(C)[C@]2(C(=O)CCl)O1 [Halcinonide] | 93 | 105 | –
CN(C)C/C=C/C(=O)Nc1cc2c(Nc3ccc(F)c(Cl)c3)ncnc2cc1O[C@H]1CCOC1 [Afatinib (BIBW2992)] | 85 | 106 | –
O=C(NCCN1CCOCC1)c1ccc(Cl)cc1 [Moclobemide (Ro 111163)] | 83 | 109 | –
CC[C@@H](C(N)=O)N1CCCC1=O [Levetiracetam] | 71 | 90 | –
Cc1cc(C2CCCCC2)n(O)c(=O)c1 [Ciclopirox] | 76 | 111 | –
C[N+]1(C)CCC(=C(c2ccccc2)c2ccccc2)CC1 [Diphemanil Methylsulfate] | 91 | 124 | –
CCOc1ccc(NC(C)=O)cc1 [Phenacetin] | 81 | 114 | –
CCC(C)n1ncn(-c2ccc(N3CCN(c4ccc(OCC5COC(Cn6cncn6)(c6ccc(Cl)cc6Cl)O5)cc4)CC3)cc2)c1=O (stereo not drawn) [Itraconazole] | 74 | 93 | –
C[C@@H](NCCCc1cccc(C(F)(F)F)c1)c1cccc2ccccc12 [Cinacalcet HCl] | 81 | 114 | –
COC(=O)C1=C(C)NC(C)=C(C(=O)OCCN2CCN(C(c3ccccc3)c3ccccc3)CC2)C1c1cccc([N+](=O)[O-])c1 (stereo not drawn) [Manidipine] | 77 | 93 | –

Compound | % Phosphatase Activity (compared to DMSO) PRL-3 (recombinant PRL-3; [1]) [%] | % Phosphatase Activity (compared to DMSO) PRL-2 (recombinant PRL-2; [1]) [%] | other results
COc1cc2nccc(Oc3ccc(NC(=O)C4(C(=O)Nc5ccc(F)cc5)CC4)cc3)c2cc1OC.O=C(O)C[C@H](O)C(=O)O [Cabozantinib malate (XL184)] | 96 | 115 | –
Cl.Cl.OCCOCCN1CCN(C(c2ccccc2)c2ccc(Cl)cc2)CC1 (stereo not drawn) [Hydroxyzine 2HCl] | 85 | 103 | –
CN(C/C=C/C#CC(C)(C)C)Cc1cccc2ccccc12 [Terbinafine] | – | – | % Phosphatase Activity (compared to DMSO) PRL-3 (recombinant PRL-3; [2]): 84%; % Phosphatase Activity (compared to DMSO) PRL-2 (recombinant PRL-2; [2]): 122%
Aprotinin | – | 90 | –
O=S(=O)([O-])CCCS(=O)(=O)[O-].[Na+].[Na+] [Eprodisate (disodium)] | 112 | 126 | –
CCN(CC)CCOC(=O)C(c1ccccc1)c1ccccc1 [Adiphenine HCl] | 82 | 101 | –
O=C(O)CCCN1CCC(O[C@@H](c2ccc(Cl)cc2)c2ccccn2)CC1.O=S(=O)(O)c1ccccc1 [Bepotastine Besilate] | 98 | 113 | –
CCc1nc(N)nc(N)c1-c1ccc(Cl)cc1 [Pyrimethamine] | 89 | 109 | –
CC1(C)S[C@@H]2[C@H](NC(=O)[C@H](N)c3ccc(O)cc3)C(=O)N2[C@H]1C(=O)O [Amoxicillin] | 106 | 150 | –
CC1(C)S[C@@H]2[C@H](NC(=O)Cc3ccccc3)C(=O)N2[C@H]1C(=O)O [Penicillin G Sodium] | 75 | 105 | –
O=c1[nH]cc(F)c(=O)[nH]1 [Fluorouracil (5-Fluoracil, 5-FU)] | 75 | 109 | –
C[N+](C)(C)CCCCCCCCCC[N+](C)(C)C [Decamethonium Bromide] | 71 | 118 | –
OC[C@@H](O)[C@H](O)[C@@H](O)CO [Xylitol] | – | – | % Phosphatase Activity (compared to DMSO) PRL-3 (recombinant PRL-3; [2]): 96%; % Phosphatase Activity (compared to DMSO) PRL-2 (recombinant PRL-2; [2]): 99%
C=C1CC[C@@]2(O)[C@H]3Cc4ccc(O)c5c4[C@@]2(CCN3CC2CC2)[C@H]1O5 [Nalmefene HCl] | 95 | 102 | –
FC(F)(F)c1ccc(/C=C/c2nc(COc3ccc(CCCCn4ccnn4)cc3)co2)cc1 [Mubritinib (TAK 165)] | – | – | % Phosphatase Activity (compared to DMSO) PRL-3 (recombinant PRL-3): 101%; % Phosphatase Activity (compared to DMSO) PRL-2 (recombinant PRL-2): 114%
CN1CCC(=C2c3ccccc3C=Cc3ccccc32)CC1 [Cyproheptadine HCl] | 93 | 112 | –
COC1=C(OC)C(=O)C(CCCCCCCCCCO)=C(C)C1=O [Idebenone] | 101 | 150 | –
OC(Cn1cncn1)(Cn1cncn1)c1ccc(F)cc1F [Fluconazole] | 76 | 97 | –
CCN(CC)CC(=O)Nc1c(C)cccc1C [Lidocaine] | 63 | 91 | –
CN(C)CCCN1c2ccccc2Sc2ccc(Cl)cc21 [Chlorpromazine HCl] | 81 | 109 | –
CC(=O)O[C@H]1C[C@@H]2CC[C@@H]3[C@H](CC[C@@]4(C)[C@H]3C[C@H]([N+]3(C)CCCCC3)[C@@H]4OC(C)=O)[C@@]2(C)C[C@@H]1[N+]1(C)CCCCC1.[Br-].[Br-] [Pancuronium dibromide] | 85 | 109 | –
CN1[C@@H]2CC[C@H]1C[C@@H](OC(=O)c1c[nH]c3ccccc13)C2 [Tropisetron] | – | – | % Phosphatase Activity (compared to DMSO) PRL-3 (recombinant PRL-3; [2]): 93%; % Phosphatase Activity (compared to DMSO) PRL-2 (recombinant PRL-2; [2]): 100%
CN(C)CCC(c1ccc(Cl)cc1)c1ccccn1 (stereo not drawn) [Chlorpheniramine Maleate] | 104 | 103 | –
CC[C@H]1OC(=O)[C@H](C)[C@@H](O[C@H]2C[C@@](C)(OC)[C@@H](O)[C@H](C)O2)[C@H](C)[C@@H](O[C@@H]2O[C@H](C)C[C@H](N(C)C)[C@H]2O)[C@](C)(OC)C[C@@H](C)C(=O)[C@H](C)[C@@H](O)[C@]1(C)O [Clarithromycin] | 86 | 111 | –
C[C@@H]1C[C@H]2[C@@H]3CCC4=CC(=O)C=C[C@]4(C)[C@@]3(F)[C@@H](O)C[C@]2(C)[C@@]1(O)C(=O)CO [Dexamethasone, reference compound] | – | – | effect on PRL phosphatase activity (DiFMUP hydrolysis), in words (recombinant PRL-3; PRL-1, PRL-2, PRL-3 for research-grade inhibitors, PRL-3 for Dexamethasone): no effect on PRL-3 phosphatase activity
